Among the data in patent US9790230B2 (Hoffmann-La Roche Inc., priority 2015, dated 2017) are Ki values, retold here.

Read-outs that look alike come from different tables or passages of the source. Some results are limits rather than exact numbers.

The target of one assay is rat TAAR1 (Rattus norvegicus (Rat), UniProt Q923Y9). The experiment in a line: Radioligand binding assay on rat TAAR1.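 Further: membranes from HEK293 cells stably transfected with rat TAAR1, tritiated TAAR1 radioligand, 1 h incubation at 4 °C, nonspecific binding determined with excess unlabeled ligand.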
rat TAAR1, sequence (Q923Y9 whole entry): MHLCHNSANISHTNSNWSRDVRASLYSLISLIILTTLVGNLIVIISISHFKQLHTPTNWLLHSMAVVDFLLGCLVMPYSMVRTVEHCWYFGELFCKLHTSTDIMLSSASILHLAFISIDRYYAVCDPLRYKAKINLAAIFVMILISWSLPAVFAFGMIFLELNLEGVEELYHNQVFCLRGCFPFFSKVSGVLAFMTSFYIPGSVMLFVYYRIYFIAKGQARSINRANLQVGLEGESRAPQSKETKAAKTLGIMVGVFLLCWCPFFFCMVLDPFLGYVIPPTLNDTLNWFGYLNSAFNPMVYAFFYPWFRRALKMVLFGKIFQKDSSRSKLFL
For the next assay, the target named is mouse TAAR1 (Mus musculus (Mouse), UniProt Q923Y8). The experiment in a line: Radioligand binding assay on mouse TAAR1.
mouse TAAR1, sequence (Q923Y8 whole entry): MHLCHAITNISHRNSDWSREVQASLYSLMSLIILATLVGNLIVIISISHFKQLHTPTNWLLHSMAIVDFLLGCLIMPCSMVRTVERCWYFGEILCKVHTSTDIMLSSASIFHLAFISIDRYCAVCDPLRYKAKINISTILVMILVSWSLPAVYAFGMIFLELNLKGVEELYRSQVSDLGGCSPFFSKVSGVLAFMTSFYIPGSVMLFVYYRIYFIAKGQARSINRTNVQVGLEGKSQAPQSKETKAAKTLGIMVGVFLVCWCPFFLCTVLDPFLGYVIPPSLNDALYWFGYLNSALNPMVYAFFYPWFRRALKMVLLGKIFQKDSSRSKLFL
[1] abbreviates: read-out: Ki (μM) rat, rat TAAR1, HEK-293 membranes, second value of cell mouse/rat.
Setting [2] is: read-out: Ki (μM) mouse, mouse TAAR1, HEK-293 membranes, first value of cell mouse/rat.

Method for mouse TAAR1: Radioligand Binding Assay on Mouse TAAR1
(§1) Membrane Preparation and Radioligand Binding.
HEK-293 cells stably expressing mouse TAAR1 were maintained at 37° C. and 5% CO2 in DMEM high glucose medium, containing fetal calf serum (10%, heat inactivated for 30 min at 56° C.), penicillin/streptomycin (1%), and 375 μg/ml geneticin (Gibco). Cells were released from culture flasks using trypsin/EDTA, harvested, washed twice with ice-cold PBS (without Ca^2+ and Mg^2+), pelleted at 1'000 rpm for 5 min at 4° C., frozen and stored at −80° C. Frozen pellets were suspended in 20 ml HEPES-NaOH (20 mM, pH 7.4) containing 10 mM EDTA and homogenized with a Polytron (PT 6000, Kinematica) at 14'000 rpm for 20 s. The homogenate was centrifuged at 48'000×g for 30 min at 4° C. Subsequently, the supernatant was removed and discarded, and the pellet resuspended in 20 ml HEPES-NaOH (20 mM, pH 7.4) containing 0.1 mM EDTA using the Polytron (20 s at 14'000 rpm). This procedure was repeated and the final pellet resuspended in HEPES-NaOH containing 0.1 mM EDTA and homogenized using the Polytron. Typically, aliquots of 2 ml membrane portions were stored at −80° C. With each new membrane batch the dissociation constant (Kd) was determined via a saturation curve. The TAAR1 radioligand ^3[H]—(S)-4-[(ethyl-phenyl-amino)-methyl]-4,5-dihydro-oxazol-2-ylamine (described in WO 2008/098857) was used at a concentration equal to the calculated Kd value, that was usually around 0.7 nM, resulting in the binding of approximately 0.5% of the radioligand and a specific binding representing approximately 70% of the total binding. Nonspecific binding was defined as the amount of ^3[H]—(S)-4-[(ethyl-phenyl-amino)-methyl]-4,5-dihydro-oxazol-2-ylamine bound in the presence of 10 M unlabeled ligand. All compounds were tested at a broad range of concentrations (10 pM to 10 μM) in duplicates. […] The 96 deep well plates were incubated for 1 hr at 4° C. Incubations were terminated by rapid filtration through Unifilter-96 plates (Packard Instrument Company) and glass filters GF/C (Perkin Elmer) presoaked for 1 hr in polyethylenimine (0.3%) and washed 3 times with 1 ml of cold binding buffer. After addition of 45 μl of Microscint 40 (PerkinElmer) the Unifilter-96 plate was sealed and after 1 hr the radioactivity counted using a TopCount Microplate Scintillation Counter (Packard Instrument Company).
Method for rat TAAR1: as §1
HEK-293 cells stably expressing rat TAAR1 were maintained at 37° C. and 5% CO2 in DMEM high glucose medium, containing fetal calf serum (10%, heat inactivated for 30 min at 56° C.), penicillin/streptomycin (1%), and 375 μg/ml geneticin (Gibco). Cells were released from culture flasks using trypsin/EDTA, harvested, washed twice with ice-cold PBS (without Ca^2+ and Mg^2+), pelleted at 1'000 rpm for 5 min at 4° C., frozen and stored at −80° C. Frozen pellets were suspended in 20 ml HEPES-NaOH (20 mM, pH 7.4) containing 10 mM EDTA and homogenized with a Polytron (PT 6000, Kinematica) at 14′000 rpm for 20 s. The homogenate was centrifuged at 48'000×g for 30 min at 4° C. Subsequently, the supernatant was removed and discarded, and the pellet resuspended in 20 ml HEPES-NaOH (20 mM, pH 7.4) containing 0.1 mM EDTA using the Polytron (20 s at 14'000 rpm). This procedure was repeated and the final pellet resuspended in HEPES-NaOH containing 0.1 mM EDTA and homogenized using the Polytron. Typically, aliquots of 2 ml membrane portions were stored at −80° C. With each new membrane batch the dissociation constant (Kd) was determined via a saturation curve. […] Nonspecific binding was defined as the amount of 3 [H]—(S)-4-[(ethyl-phenyl-amino)-methyl]-4,5-dihydro-oxazol-2-ylamine bound in the presence of 10 M unlabeled ligand. All compounds were tested at a broad range of concentrations (10 pM to 10 μM) in duplicates. […] The 96 deep well plates were incubated for 1 hr at 4° C. Incubations were terminated by rapid filtration through Unifilter-96 plates (Packard Instrument Company) and glass filters GF/C (Perkin Elmer) presoaked for 1 hr in polyethylenimine (0.3%) and washed 3 times with 1 ml of cold binding buffer. After addition of 45 μl of Microscint 40 (PerkinElmer) the Unifilter-96 plate was sealed and after 1 hr the radioactivity counted using a TopCount Microplate Scintillation Counter (Packard Instrument Company).

`O=C(Nc1ccc([C@@H]2O[C@H]3CN[C@@H]2C3)cc1)c1cccc(Cl)c1` [Example 10, 3-Chloro-N-[4-[(1R,3S,4R)-2-oxa-5-azabicyclo[2.2.1]heptan-3-yl]phenyl]benzamide]: the Ki on rat TAAR1 was determined as 0.055 µM; at mouse TAAR1, 0.0042 µM.

Turning to `O=C(Nc1ccc([C@@H]2O[C@H]3CN[C@@H]2C3)cc1)c1ccc(OCC2CC2)cc1` [Example 12, 4-(Cyclopropylmethoxy)-N-[4-[(1R,3S,4R)-2-oxa-5-azabicyclo[2.2.1]heptan-3-yl]phenyl]benzamide], the Ki at rat TAAR1 is 0.134 µM; on mouse TAAR1 it was 0.0067 µM.

On to `O=C(Nc1ccc([C@H]2O[C@@H]3CN[C@H]2C3)cc1)c1ccc(C(F)(F)F)nc1` [Example 44, N-[4-[(1S,3R,4S)-2-Oxa-5-azabicyclo[2.2.1]heptan-3-yl]phenyl]-6-(trifluoromethyl)pyridine-3-carboxamide], for which the Ki on rat TAAR1 was determined as 0.0848 µM; at mouse TAAR1, 0.0111 µM.

In the case of `O=C(Nc1ccc([C@@H]2O[C@H]3CN[C@@H]2C3)cc1)c1ccc(C(F)(F)F)cn1` [Example 71, N-[4-[(1R,3S,4R)-2-Oxa-5-azabicyclo[2.2.1]heptan-3-yl]phenyl]-5-(trifluoromethyl)pyridine-2-carboxamide], the Ki on rat TAAR1 came to 0.0135 µM; on mouse TAAR1, 0.0054 µM.

Regarding `CCc1n[nH]c(C(=O)Nc2ccc([C@@H]3O[C@H]4CN[C@@H]3C4)cc2)c1C` [Example 67, 3-Ethyl-4-methyl-N-[4-[(1R,3S,4R)-2-oxa-5-azabicyclo[2.2.1]heptan-3-yl]phenyl]-11H-pyrazole-5-carboxamide], the Ki was determined as 0.503 µM on rat TAAR1 (setting [1]) and 0.01 µM on mouse TAAR1 (setting [2]).

With `O=C(Nc1ccc([C@H]2O[C@@H]3CN[C@H]2C3)cc1)c1ccnc(C(F)(F)F)c1` [Example 25, N-[4-[(1S,3R,4S)-2-Oxa-5-azabicyclo[2.2.1]heptan-3-yl]phenyl]-2-(trifluoromethyl)pyridine-4-carboxamide], the Ki at rat TAAR1 was 0.327 µM; on mouse TAAR1 it was 0.0224 µM.

Turning to `Cc1n[nH]c(C(=O)Nc2ccc([C@H]3O[C@@H]4CN[C@H]3C4)cc2)c1Cl` [Example 46, 4-Chloro-3-methyl-N-[4-[(1S,3R,4S)-2-oxa-5-azabicyclo[2.2.1]heptan-3-yl]phenyl]-1H-pyrazole-5-carboxamide], the Ki was 0.673 µM on rat TAAR1 and 0.0098 µM on mouse TAAR1.

Regarding `CCc1ncc(C(=O)Nc2ccc([C@@H]3O[C@H]4CN[C@@H]3C4)cc2)cn1` [Example 74, 2-Ethyl-N-[4-[(1R,3S,4R)-2-oxa-5-azabicyclo[2.2.1]heptan-3-yl]phenyl]pyrimidine-5-carboxamide], the results for the Ki at rat TAAR1 and on mouse TAAR1 were 0.19 µM and 0.109 µM, respectively.

For the compound `O=C(Nc1ccc([C@H]2O[C@@H]3CN[C@H]2C3)cc1)c1ccc(OCC2CC2)cc1` [Example 32, 4-(Cyclopropylmethoxy)-N-[4-[(1S,3R,4S)-2-oxa-5-azabicyclo[2.2.1]heptan-3-yl]phenyl]benzamide], the Ki worked out at 0.164 µM on rat TAAR1 and 0.0063 µM at mouse TAAR1.

Take `CCOc1ccc(NC(=O)c2ccc([C@@H]3O[C@H]4CN[C@@H]3C4)cc2)cn1` [Example 95, N-(6-Ethoxy-3-pyridyl)-4-[(1R,3S,4R)-2-oxa-5-azabicyclo[2.2.1]heptan-3-yl]benzamide]: the Ki on rat TAAR1 was over 1.45 µM; on mouse TAAR1, 0.0613 µM.

For the compound `O=C(Nc1ccc(F)cc1)c1ccc([C@H]2O[C@@H]3CN[C@H]2C3)cc1` [Example 57, N-(4-Fluorophenyl)-4-[(1S,3R,4S)-2-oxa-5-azabicyclo[2.2.1]heptan-3-yl]benzamide], the Ki on rat TAAR1 came out at 0.0458 µM; on mouse TAAR1, 0.0034 µM.

Consider `O=C(Nc1ccc([C@@H]2O[C@H]3CN[C@@H]2C3)cc1)c1ccnc(C(F)(F)F)c1` [Example 26, N-[4-[(1R,3S,4R)-2-Oxa-5-azabicyclo[2.2.1]heptan-3-yl]phenyl]-2-(trifluoromethyl)pyridine-4-carboxamide], for which the results for the Ki on rat TAAR1 and at mouse TAAR1 were 0.137 µM and 0.0223 µM, respectively.

In the case of `CC(C)c1n[nH]c(C(=O)Nc2ccc([C@@H]3O[C@H]4CN[C@@H]3C4)cc2)c1Cl` [Example 102, 4-Chloro-3-isopropyl-N-[4-[(1R,3S,4R)-2-oxa-5-azabicyclo[2.2.1]heptan-3-yl]phenyl]-11H-pyrazole-5-carboxamide], the values for the Ki on rat TAAR1 (setting [1]) and at mouse TAAR1 (setting [2]) were 0.0142 µM and 0.0089 µM, respectively.

Take `Brc1ccc([C@@H]2O[C@H]3CN[C@@H]2C3)cc1` [Example 54, (1R,3S,4R)-3-(4-Bromophenyl)-2-oxa-5-azabicyclo[2.2.1]heptane]: the Ki at rat TAAR1 is 0.0346 µM; at mouse TAAR1, 0.145 µM.

Consider `CCCc1n[nH]c(C(=O)Nc2ccc([C@@H]3O[C@H]4CN[C@@H]3C4)cc2)c1F` [Example 78, 4-Fluoro-N-[4-[(1R,3S,4R)-2-oxa-5-azabicyclo[2.2.1]heptan-3-yl]phenyl]-3-propyl-1H-pyrazole-5-carboxamide], for which the Ki at rat TAAR1 amounted to 0.103 µM; on mouse TAAR1, 0.0042 µM.

On to `O=C(COCCC(F)(F)F)Nc1ccc([C@H]2O[C@@H]3CN[C@H]2C3)cc1` [Example 70, N-[4-[(1S,3R,4S)-2-Oxa-5-azabicyclo[2.2.1]heptan-3-yl]phenyl]-2-(3,3,3-trifluoropropoxy)acetamide], for which the Ki on rat TAAR1 worked out at 0.512 µM; at mouse TAAR1 it was 0.0094 µM.

Turning to `CCc1ncc(C(=O)Nc2ccc([C@H]3O[C@@H]4CN[C@H]3C4)cc2)cn1` [Example 34, 2-Ethyl-N-[4-[(1S,3R,4S)-2-oxa-5-azabicyclo[2.2.1]heptan-3-yl]phenyl]pyrimidine-5-carboxamide], the Ki at rat TAAR1 came to 0.457 µM; at mouse TAAR1, 0.0563 µM.

With `CCc1n[nH]c(C(=O)Nc2ccc([C@@H]3O[C@H]4CN[C@@H]3C4)cc2)c1Cl` [Example 76, 4-Chloro-3-ethyl-N-[4-[(1R,3S,4R)-2-oxa-5-azabicyclo[2.2.1]heptan-3-yl]phenyl]-1H-pyrazole-5-carboxamide], the values for the Ki at rat TAAR1 and on mouse TAAR1 were 0.0842 µM and 0.0047 µM, respectively.

Take `O=C(Nc1ccc([C@H]2O[C@@H]3CN[C@H]2C3)cc1)c1ccc(Cl)cc1` [Example 14, 4-Chloro-N-[4-[(1S,3R,4S)-2-oxa-5-azabicyclo[2.2.1]heptan-3-yl]phenyl]benzamide]: the Ki on rat TAAR1 worked out at 0.192 µM; at mouse TAAR1, 0.005 µM.

As to `O=C(Nc1ccc(Br)cc1)c1ccc([C@@H]2O[C@H]3CN[C@@H]2C3)cc1` [Example 86, N-(4-Bromophenyl)-4-[(1R,3S,4R)-2-oxa-5-azabicyclo[2.2.1]heptan-3-yl]benzamide], the Ki at rat TAAR1 came to 0.809 µM; at mouse TAAR1, 0.0102 µM.

Consider `FC(F)(F)c1cnc(Nc2ccc([C@H]3O[C@@H]4CN[C@H]3C4)cc2)nc1` [Example 23, N-[4-[(1S,3R,4S)-2-Oxa-5-azabicyclo[2.2.1]heptan-3-yl]phenyl]-5-(trifluoromethyl)pyrimidin-2-amine], for which the Ki on rat TAAR1 was determined as 0.146 µM; at mouse TAAR1, 0.0157 µM.

Turning to `CCOc1ccc(NC(=O)c2ccc([C@H]3O[C@@H]4CN[C@H]3C4)cc2)cn1` [Example 62, N-(6-Ethoxy-3-pyridyl)-4-[(1S,3R,4S)-2-oxa-5-azabicyclo[2.2.1]heptan-3-yl]benzamide], the Ki is 0.107 µM on rat TAAR1 and 0.0049 µM on mouse TAAR1.

Regarding `O=C(NCc1ccc(C(F)(F)F)cc1)c1ccc([C@@H]2O[C@H]3CN[C@@H]2C3)cc1` [Example 96, 4-[(1R,3S,4R)-2-Oxa-5-azabicyclo[2.2.1]heptan-3-yl]-N-[[4-(trifluoromethyl)phenyl]methyl]benzamide], the Ki on rat TAAR1 is over 1.45 µM; at mouse TAAR1 it was 0.0477 µM.

By Ki is commonly meant a dissociation constant, usually derived from enzyme kinetics or from competition with a known ligand.
